# Reference: US8815954B2, “Arginine heteromers for topical administration” (Revance Therapeutics, Inc., priority 2005, dated 2014)
# Key:
# [1] = tested on: murine skin; test: In vivo cumulative efficacy for topical delivery of arginine across murine skin; morphological assessment of treated skin sections by image analysis; design: species or system C57 black 6 female mice; conditions: mice, topical 200 μl once daily for 7 days in Cetaphil cream, dorsal skin harvested 24 hours after last treatment, H&E image analysis
# Protocol: In vivo cumulative efficacy for topical delivery of arginine across murine skin.
# The potential for a heteromer of arginine to cross the skin and exert previously characterized benefits related to arginine/NOS activity was evaluated by examining arginine-vitamin E and arginine-palmitate heteromers in an animal model system. While both heteromers improve the lipid solubility relative to arginine alone and should increase transdermal flux, the vitamin E heteromer is also expected to afford additional functional benefits due to its anti-oxidant properties.
# 1. Arg-palmitate: 0.9996 g of arginine+palmitate were dissolved in 6 ml of jojoba oil (Essential Wholesale, Portland, Oreg.), then diluted with 6 ml (1:1 dilution) of Cetaphil cream.
# 2. Arg-vitamin E: 0.419 g of arginine+vitamin E were dissolved in 6 ml of deionized H2O then diluted with 6 ml (1:1 dilution) of Cetaphil cream.
# Daily-dose topical treatments of metered 200 μl aliquots were prepared for treatments of Arg-palmitate, Arg-vitamin E, or Cetaphil control in 650 μl microcentrifuge tubes.
# Animals (C57 black 6 female mice, Charles River Laboratories, Wilmington, Mass.) were anesthetized via inhalation of isoflurane mixed with oxygen and then injected with 0.5 ml rodent anesthetic cocktail (3.75 ml of 100 mg/ml Ketamine, 3.00 ml of 20 mg/ml Xylazine, and 23.25 ml of saline) intraperitoneally. The animals were supplemented with isoflurane as necessary. Treatment groups contained 4 mice each and the control group 3 mice. After being anesthetized, a 2.0 cm×2.0 cm dose site on the dorsum of each mouse was carefully shaved with a hair clipper on the first day of treatment application and animals underwent depilatory treatment in the same dorsal region using a rosin mixture (Surgiwax, Ardell International, Los Angeles, Calif.). Animals were anesthetized via inhalation of isoflurance only during the application of treatments in Cetaphil moisturizing cream (Galderma, Fort Worth, Tex.) and had metered 200 μl doses of the appropriate treatment applied to the cranial portion of dorsal back skin (selected because the mouse cannot reach this region with mouth or limbs). Animals remained under anesthesia for 1-2 minutes while the appropriate treatment was applied into the skin with small metal spatula. […]
# High resolution digital images of each section were obtained using a Retiga 1300B camera (QImaging, Burnaby, BC, Canada). Images were analyzed using Image-Pro Plus analysis software (Media Cybernetics, Silver Springs, Md.) to determine morphological assessment and expressed as positive pixels. Mean and standard error were subsequently determined for each group using Statview software (Abacus, Berkeley, Calif.), with analysis of significance at 95% confidence in Wilcoxon signed ranks.
# [2] = tested on: human forehead skin perfusion; test: Human forehead tissue perfusion by Laser Doppler Flowmeter after topical application; assay type: in vivo; conditions: lip balm formulation 4.0 mg/ml topical, readings every 30 seconds for 5 minutes from one minute after application (n=55)
# Protocol: Mean and standard error were assessed using Statview (Abacus Concepts, Berkeley, Calif.), with comparisons made using ANOVA repeated measures and significance determined at 95% with post-hoc testing using Fisher PLSD or Scheffe F-test. All procedures and analyses were performed by blinded observers.
smiles,measurement,setting,value
Cc1c(C)c2c(c(C)c1OC(=O)C(N)CCCNC(=N)N)CCC(C)(CCCC(C)CCCC(C)CCCC(C)C)O2 (centres unmarked) [Arg-Vitamin E],"Dermis: dermal thickness, Mean",[1],35779 positive pixels
same,"Epidermis: epidermal thickness, Mean",[1],16475 positive pixels
same,"Fat: fat thickness/density, Mean",[1],21386 positive pixels
same,"Hair: hair length, Mean",[1],18316 positive pixels
same,"Forehead perfusion, Mean",[2],8.016 tissue perfusion units
